Laboratory results taken from patent publication EP3687536B1, “METHODS OF TREATING HEMOCHROMATOSIS AND RESPIRATORY DISORDERS” (MYMD PHARMACEUTICALS, INC., priority 2017, dated 2019).
“Also recorded” adds a separate entry of the source.

What was measured:
MAO-A = molecular target: T1, MAO-A (Homo sapiens, UniProt P21397); assay: MAO-Glo luminescent assay, MAO-A inhibition; type: biochemical; details: for inhibiting the enzymatic activity of MAO-A (result in words): compared among isomyosmine, myosmine, anatabine, anabasine, nornicotine, clorgyline positive control, FIG. 3
T1 construct: purchased
T1 sequence (P21397 1-527): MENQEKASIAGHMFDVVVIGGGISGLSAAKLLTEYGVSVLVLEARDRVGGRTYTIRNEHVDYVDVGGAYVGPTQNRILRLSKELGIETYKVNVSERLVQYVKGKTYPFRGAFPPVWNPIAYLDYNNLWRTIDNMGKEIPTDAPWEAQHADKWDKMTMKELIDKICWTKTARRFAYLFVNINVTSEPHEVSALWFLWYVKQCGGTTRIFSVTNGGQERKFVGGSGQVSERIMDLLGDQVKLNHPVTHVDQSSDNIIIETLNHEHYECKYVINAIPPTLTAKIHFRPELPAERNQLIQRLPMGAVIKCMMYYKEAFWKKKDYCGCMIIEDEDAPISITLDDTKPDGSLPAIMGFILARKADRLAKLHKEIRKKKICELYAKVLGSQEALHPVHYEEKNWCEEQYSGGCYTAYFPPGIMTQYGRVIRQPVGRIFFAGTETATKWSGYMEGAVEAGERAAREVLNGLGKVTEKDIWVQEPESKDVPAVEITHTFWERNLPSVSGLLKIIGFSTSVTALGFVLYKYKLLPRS
Text: (§1) This example describes experiments for determining monoamine oxidase (MAO) inhibition for isomyosmine and other alkaloids. MAOs are enzymes located on the outer membrane of mitochondria and are involved in the catabolism of monoamine neurotransmitters. There are two well-characterized isoenzymes: MAO-A, which predominantly catabolizes serotonin and norepinephrine, and MAO-B, which preferentially catabolizes benzylamine and phenylethylamine. Dopamine and tyramine are metabolized by both isoforms.
(§2) To detect the activity of MAO, a luminescent method (MAO-Glo Assay kit, from Promega, Cat # V1401) was used. In this method, a MAO substrate (a derivative of beetle luciferin provided in the kit) is mixed with the compound to be tested (in this case, myosmine and control compounds). Then, the MAO enzymes (either A or B, purchased separately) are added to the mixture and incubated with the reaction for 1 hour at room temperature. The MAO enzymes, if not inhibited by the test compound, will convert the substrate into methyl ester luciferin. Finally, a luciferin detection reagent (provided by the kit) is added (20 minutes at room temperature) to stop the MAO reaction and convert methyl ester luciferin into D-luciferin. D-luciferin reacts with luciferase to produce a luminescent signal, which is directly proportional to the D-luciferin concentration and thus the MAO activity: the greater the amount of light produced the higher the activity of MAO. The luminescent signal is measured and recorded using a luminometer.
The following materials were obtained from Toronto Research Chemicals, North York, ON: isomyosmine, catalog # 1821350; myosmine, catalog # M835000; anabasine, catalog # A637175; and nornicotine, catalog # N756995. Anatabine was obtained from Emerson Resources, Norristown, PA.

MAO-B = molecular target: T2, MAO-B (Homo sapiens, UniProt P27338); assay: MAO-Glo luminescent assay, MAO-B inhibition; type: biochemical; details: compared among isomyosmine, myosmine, anatabine, anabasine, nornicotine; FIG. 4
T2 construct: purchased
T2 sequence (P27338 1-520): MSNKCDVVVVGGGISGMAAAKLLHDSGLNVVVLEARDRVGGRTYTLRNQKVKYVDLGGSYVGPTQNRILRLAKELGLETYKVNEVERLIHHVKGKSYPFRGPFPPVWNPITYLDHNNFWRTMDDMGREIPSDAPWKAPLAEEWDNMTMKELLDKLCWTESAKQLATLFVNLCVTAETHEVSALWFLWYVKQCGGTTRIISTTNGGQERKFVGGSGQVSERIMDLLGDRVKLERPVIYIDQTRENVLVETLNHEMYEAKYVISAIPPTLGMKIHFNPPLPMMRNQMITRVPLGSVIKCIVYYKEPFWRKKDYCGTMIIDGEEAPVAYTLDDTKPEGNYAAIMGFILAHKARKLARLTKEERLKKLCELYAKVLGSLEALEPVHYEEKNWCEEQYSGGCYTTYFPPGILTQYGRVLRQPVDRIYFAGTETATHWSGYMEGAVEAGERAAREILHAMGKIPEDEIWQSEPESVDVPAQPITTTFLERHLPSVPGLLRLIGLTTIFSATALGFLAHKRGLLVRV
Text: as §1
as §2, with “D-luciferin reacts with luciferase to produce a luminescent signal, which is directly proportional to the D-luciferin concentration and thus the MAO activity: the greater the amount of light produced the higher the activity of MAO.” left out, “luminometer. […]” for “luminometer.”

[1] = Blood oxygen saturation (SpO2) by pulse oximetry in individuals; type: in vivo, human; details: seven individuals, one hour after single dose 50-100 mg
Text: This example illustrates the effect of isomyosmine on normal blood oxygen saturation levels (SpO2). SpO2 refers to peripheral capillary oxygen saturation, an estimate of the amount of oxygen in the blood. More specifically, it is the percentage of oxygenated hemoglobin (hemoglobin containing oxygen) compared to the total amount of hemoglobin in the blood (oxygenated and non-oxygenated hemoglobin). SpO2 can be measured by pulse oximetry, an indirect, non-invasive method. It works by emitting and then absorbing a light wave passing through blood vessels (or capillaries) in the fingertip. A variation of the light wave passing through the finger will give the value of the SpO2 measurement because the degree of oxygen saturation causes variations in the blood's color.

[2] = Topical administration for wound healing; type: in vivo; details: e.g. surgical incisions
Text: A method, not falling within the scope of the claimed subject-matter, of treating a wound is also described herein which comprises administering to an individual in need thereof a pharmaceutical composition containing a therapeutically effective amount of isomyosmine or a pharmaceutically acceptable salt thereof.

SMILES | inhibiting the enzymatic activity of MAO-A (result in words) (MAO-A) | inhibiting the enzymatic activity of MAO-A (result in words) (MAO-A; listed as Isomyosmine) | inhibition at 2000 µM (MAO-A; read-out: inhibition of MAO-A) | inhibiting the activity of MAO-B (result in words) (MAO-B) | blood oxygenation (result in words) [1] | wound healing (result in words) [2]
C#CCN(C)CCCOc1ccc(Cl)cc1Cl [clorgyline, reference compound] | greatly shifted leftward |  |  |  |  | 
C1=NC(c2cccnc2)CC1 (stereo not shown) [isomyosmine, 3-(3,4-dihydro-2H-pyrrol-2-yl)-pyridine] | most potent of the five | potent inhibitor | ~50% | most potent among the five alkaloids tested; also recorded: potent inhibitor | significant increase in blood oxygenation | dramatically improve healing
